# Measurements published in patent US20260285850A1, “SUBSTITUTED OXAZOLIDINONES AND IMIDAZOLINONES AS HERBICIDES” (FMC CORPORATION, priority 2023, published 2026).
# Assays:
# Assay type in all cases: in vivo
# [1] = tested on: barnyardgrass (Echinochloa crusgalli); assay: Test B flooded paddy test, visual plant response rating 0-100; settings: 250 g ai/ha, Flood, applied to paddy water, evaluated after 13 days
# How it was run: (§1)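 Visual scores versus untreated controls were recorded 13 days after treatment of greenhouse-held plants. At the 2-leaf stage, pots were flooded 3 cm above the soil surface and compounds added straight to the water.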
# [2] = tested on: ducksalad (Heteranthera limosa); assay: as above; settings: 250 g ai/ha, Flood, applied to paddy water, evaluated after 13 days
# How it was run: as §1
# [3] = tested on: rice (Oryza sativa); assay: as above; settings: 250 g ai/ha, Flood, applied to paddy water, evaluated after 13 days
# How it was run: as §1
# [4] = tested on: sedge, umbrella (small-flower umbrella sedge, Cyperus difformis); assay: as above; settings: 250 g ai/ha, Flood, applied to paddy water, evaluated after 13 days
# How it was run: as §1
# [5] = tested on: green foxtail (Setaria viridis); assay: Test A postemergence application, visual injury rating 0-100; settings: 10 days
# How it was run: (§2)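 Plants were grown in a loam soil-sand blend and treated with test chemical in a non-phytotoxic solvent mixture containing surfactant, either sprayed on soil preemergence or applied postemergence to 2-10 cm plants. After 10 days in a greenhouse, injury was scored visually against untreated controls, 0 meaning no effect and 100 complete control.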
# [6] = tested on: ryegrass, Italian (italian ryegrass, Lolium multiflorum); assay: as above; settings: 10 days
# How it was run: as §2
# [7] = tested on: soybean (Glycine max); assay: as above; settings: 10 days
# How it was run: as §2
# [8] = tested on: palmer (palmer amaranth, palmer pigweed, Amaranthus palmeri); assay: as above; settings: 10 days
# How it was run: as §2
# [9] = tested on: wheat (Triticum aestivum); assay: as above; settings: 10 days
# How it was run: as §2
# [10] = tested on: kochia (Bassia scoparia); assay: as above; settings: 10 days
# How it was run: as §2
# [11] = tested on: horseweed (Erigeron canadensis); assay: as above; settings: 10 days
# How it was run: as §2
# [12] = tested on: corn (Zea mays); assay: as above; settings: 10 days
# How it was run: as §2
# [13] = tested on: ragweed (common ragweed, Ambrosia artemisiifolia); assay: as above; settings: 10 days
# How it was run: as §2
# [14] = tested on: barnyardgrass (Echinochloa crus-galli); assay: as above; settings: 10 days
# How it was run: as §2
# [15] = tested on: galium (catchweed bedstraw, Galium aparine); assay: as above; settings: 10 days
# How it was run: as §2
# [16] = tested on: blackgrass (Alopecurus myosuroides); assay: as above; settings: 10 days
# How it was run: as §2
# [17] = tested on: oat, wild (wild oat, Avena fatua); assay: as above; settings: 10 days
# How it was run: as §2
# [18] = tested on: green foxtail (Setaria viridis); assay: Test A preemergence soil spray, visual injury rating 0-100; settings: 10 days, 0 = no effect, 100 = complete control
# How it was run: as §2
# [19] = tested on: ryegrass, Italian (italian ryegrass, Lolium multiflorum); assay: as above; settings: 10 days, 0 = no effect, 100 = complete control
# How it was run: as §2
# [20] = tested on: soybean (Glycine max); assay: as above; settings: 10 days, 0 = no effect, 100 = complete control
# How it was run: as §2
# [21] = tested on: palmer (palmer amaranth, palmer pigweed, Amaranthus palmeri); assay: as above; settings: 10 days, 0 = no effect, 100 = complete control
# How it was run: as §2
# [22] = tested on: wheat (Triticum aestivum); assay: as above; settings: 10 days, 0 = no effect, 100 = complete control
# How it was run: as §2
# [23] = tested on: kochia (Bassia scoparia); assay: as above; settings: 10 days, 0 = no effect, 100 = complete control
# How it was run: as §2
# [24] = tested on: corn (Zea mays); assay: as above; settings: 10 days, 0 = no effect, 100 = complete control
# How it was run: as §2
# [25] = tested on: ragweed (common ragweed, Ambrosia artemisiifolia); assay: as above; settings: 10 days, 0 = no effect, 100 = complete control
# How it was run: as §2
# [26] = tested on: barnyardgrass (Echinochloa crus-galli); assay: as above; settings: 10 days, 0 = no effect, 100 = complete control
# How it was run: as §2
# [27] = tested on: blackgrass (Alopecurus myosuroides); assay: as above; settings: 10 days, 0 = no effect, 100 = complete control
# How it was run: as §2
# [28] = tested on: oat, wild (wild oat, Avena fatua); assay: as above; settings: 10 days, 0 = no effect, 100 = complete control
# How it was run: as §2
# [29] = 31 g ai/ha, postemergence, 0 = no effect, 100 = complete control
# [30] = Postemergence, 125 g ai/ha, 0 is no effect, 100 is complete control
smiles,measurement,setting,value
COC(=O)C1CC(NC(=O)C2(C)CN(c3cc(F)cc(F)c3)C(=O)O2)CO1 (stereo not shown) [Compound 29],"Plant response rating, Barnyardgrass (0 to 100 scale, 0 is no effect and 100 is complete control)",[1],0
same,"Plant response rating, Ducksalad (0 to 100 scale, 0 is no effect and 100 is complete control)",[2],0
same,"Plant response rating, Rice (0 to 100 scale, 0 is no effect and 100 is complete control)",[3],0
same,"Plant response rating, Sedge, Umbrella (0 to 100 scale, 0 is no effect and 100 is complete control)",[4],0
same,"Foxtail, Green plant response rating (0-100)",[5]; [29],0
same,"Foxtail, Green plant response rating (0 to 100 scale)",[5]; [30],80
same,"Ryegrass, Italian plant response rating (0-100)",[6]; [29],50
same,"Ryegrass, Italian plant response rating (0 to 100 scale)",[6]; [30],90
same,Soybean plant response rating (0-100),[7]; [29],0
same,Soybean plant response rating (0 to 100 scale),[7]; [30],50
same,"Amaranth, Palmer plant response rating (0-100)",[8]; [29],0
same,"Amaranth, Palmer / Pigweed, Palmer plant response rating (0 to 100 scale)",[8]; [30],60
same,Wheat plant response rating (0-100),[9]; [29],80
same,Wheat plant response rating (0 to 100 scale),[9]; [30],90
same,Kochia plant response rating (0-100),[10]; [29],20
same,Kochia plant response rating (0 to 100 scale),[10]; [30],40
same,Horseweed plant response rating (0-100),[11]; [29],0
same,Horseweed plant response rating (0 to 100 scale),[11]; [30],20
same,Corn plant response rating (0-100),[12]; [29],0
same,Corn plant response rating (0 to 100 scale),[12]; [30],70
same,Ragweed plant response rating (0-100),[13]; [29],30
same,Ragweed plant response rating (0 to 100 scale),[13]; [30],30
same,Barnyardgrass plant response rating (0-100),[14]; [29],10
same,Barnyardgrass plant response rating (0 to 100 scale),[14]; [30],80
same,Galium plant response rating (0-100),[15]; [29],50
same,Galium plant response rating (0 to 100 scale),[15]; [30],80
same,Blackgrass plant response rating (0-100),[16]; [29],90
same,Blackgrass plant response rating (0 to 100 scale),[16]; [30],90
same,"Oat, Wild plant response rating (0-100)",[17]; [29],80
same,"Oat, Wild plant response rating (0 to 100 scale)",[17]; [30],90
same,"Foxtail, Green plant response rating (0-100)",[18]; 31 g ai/ha,0
same,"Foxtail, Green plant response rating (0 to 100 scale)",[18]; 125 g ai/ha,0
same,"Ryegrass, Italian plant response rating (0-100)",[19]; 31 g ai/ha,0
same,"Ryegrass, Italian plant response rating (0 to 100 scale)",[19]; 125 g ai/ha,30
same,Soybean plant response rating (0-100),[20]; 31 g ai/ha,0
same,Soybean plant response rating (0 to 100 scale),[20]; 125 g ai/ha,0
same,"Amaranth, Palmer plant response rating (0-100)",[21]; 31 g ai/ha,0
same,"Amaranth, Palmer plant response rating (0 to 100 scale)",[21]; 125 g ai/ha,0
same,Wheat plant response rating (0-100),[22]; 31 g ai/ha,0
same,Wheat plant response rating (0 to 100 scale),[22]; 125 g ai/ha,80
same,Kochia plant response rating (0-100),[23]; 31 g ai/ha,0
same,Kochia plant response rating (0 to 100 scale),[23]; 125 g ai/ha,0
same,Corn plant response rating (0-100),[24]; 31 g ai/ha,0
same,Corn plant response rating (0 to 100 scale),[24]; 125 g ai/ha,0
same,Ragweed plant response rating (0-100),[25]; 31 g ai/ha,0
same,Ragweed plant response rating (0 to 100 scale),[25]; 125 g ai/ha,0
same,Barnyardgrass plant response rating (0-100),[26]; 31 g ai/ha,0
same,Barnyardgrass plant response rating (0 to 100 scale),[26]; 125 g ai/ha,20
same,Blackgrass plant response rating (0-100),[27]; 31 g ai/ha,0
same,Blackgrass plant response rating (0 to 100 scale),[27]; 125 g ai/ha,50
same,"Oat, Wild plant response rating (0-100)",[28]; 31 g ai/ha,0
same,"Oat, Wild plant response rating (0 to 100 scale)",[28]; 125 g ai/ha,60
